According to the NIST ThermoML archive (doi:10.1016/j.jct.2014.07.011):
± gives the expanded uncertainty stated by the source.

Assays:
[1] = Crystal; DTA
[2] = Molar enthalpy of transition or fusion; conditions: Crystal; DSC

CC(=O)S[C@@H]1CC2=CC(=O)CC[C@]2(C)[C@H]2CC[C@@]3(C)[C@@H](CC[C@@]34CCC(=O)O4)[C@H]12 [spironolactone]
Normal melting temperature [1]: 208.42 ± 1.1 °C | Molar enthalpy of transition or fusion [2]: 20.8 ± 1.3 kJ/mol
